From publication PMC5342726, “Identification of small molecule inhibitors of ERCC1-XPF that inhibit DNA repair and potentiate cisplatin efficacy in cancer cells” (Oncotarget, 2016)

Columns and labels:
ERCC1-XPF [1] = molecular target: T1, ERCC1-XPF (Homo sapiens, UniProt P07992+Q92889); assay: EMSA, binding of ERCC1-XPF to DNA; settings: for effect on binding of purified ERCC1-XPF to DNA: compound titration, concentrations used in further in vitro experiments
T1 construct: made in house; host or cells: Sf9 insect cells, baculovirus (obtained from Aziz Sancar)
T1 sequence (Q92889 1-916): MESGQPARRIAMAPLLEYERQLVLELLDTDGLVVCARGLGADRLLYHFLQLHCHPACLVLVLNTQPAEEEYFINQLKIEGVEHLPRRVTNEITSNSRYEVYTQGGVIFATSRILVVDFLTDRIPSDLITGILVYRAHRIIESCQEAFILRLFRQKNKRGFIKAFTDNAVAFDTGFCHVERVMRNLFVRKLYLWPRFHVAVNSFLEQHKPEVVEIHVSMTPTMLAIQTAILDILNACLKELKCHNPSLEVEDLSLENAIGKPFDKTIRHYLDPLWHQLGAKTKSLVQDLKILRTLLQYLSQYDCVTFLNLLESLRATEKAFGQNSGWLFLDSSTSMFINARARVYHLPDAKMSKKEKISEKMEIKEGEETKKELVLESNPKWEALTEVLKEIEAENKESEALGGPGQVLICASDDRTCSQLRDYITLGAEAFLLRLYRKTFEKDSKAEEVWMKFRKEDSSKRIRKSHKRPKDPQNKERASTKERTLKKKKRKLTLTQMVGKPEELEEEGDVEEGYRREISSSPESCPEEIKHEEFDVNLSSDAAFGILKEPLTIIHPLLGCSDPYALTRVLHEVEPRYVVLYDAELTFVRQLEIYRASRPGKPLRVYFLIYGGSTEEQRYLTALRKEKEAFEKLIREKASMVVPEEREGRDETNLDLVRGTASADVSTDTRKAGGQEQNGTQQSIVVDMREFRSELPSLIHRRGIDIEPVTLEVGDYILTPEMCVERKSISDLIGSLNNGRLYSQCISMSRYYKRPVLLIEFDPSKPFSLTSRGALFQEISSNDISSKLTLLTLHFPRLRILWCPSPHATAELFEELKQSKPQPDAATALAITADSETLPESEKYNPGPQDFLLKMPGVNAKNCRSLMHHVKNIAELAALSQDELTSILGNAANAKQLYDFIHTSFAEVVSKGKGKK
T1 sequence (P07992 1-297): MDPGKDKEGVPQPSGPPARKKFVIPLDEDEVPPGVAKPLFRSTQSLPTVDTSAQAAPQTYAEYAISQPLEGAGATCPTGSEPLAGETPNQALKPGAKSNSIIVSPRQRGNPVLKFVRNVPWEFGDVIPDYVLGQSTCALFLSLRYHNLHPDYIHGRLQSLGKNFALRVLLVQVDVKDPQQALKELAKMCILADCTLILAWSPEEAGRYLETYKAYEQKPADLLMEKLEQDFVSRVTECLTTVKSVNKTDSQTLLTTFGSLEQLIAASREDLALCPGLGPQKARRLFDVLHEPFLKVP
Protocol: In order to study if the compounds' inhibitory activity of ERCC1-XPF incision is due to inhibition of DNA binding ability, we performed EMSAs [23]. […] In this assay, we incubated the titrated Hit 1 or 2 respectively with purified ERCC1-XPF on ice and reactions were initiated by the addition of the 5'-[^32P] radiolabeled DNA substrate 37°C. The samples were separated on a 10% native gel and the products were visualized via phosphorimager analysis.
Sciences Core at Karmanos Cancer Institute using DNA Binding-electrophoretic mobility shift assay
was used for testing the effect of compounds on the DNA
in SF9 insect cells using a baculovirus expression system requires metal for DNA incision, MgCl2 was excluded
0.1M EDTA was added to the
Post incubation, glutaraldehyde was added to a final
column, which was initially loaded and washed with a low minutes at 37°C. The reaction was run on a 10% native

HhaI = assay: Gel-based nuclease assay, HhaI; format: biochemical; settings: compound titration
H460 cells = assay: Cisplatin intrastrand adduct repair by ELISA; format: cell-based; settings: 72 hours (last time point), compound 15 μM 2 h then cisplatin at IC90 2 h; relative to 0 hour
ERCC1-XPF [2] = molecular target: T1, ERCC1-XPF; assay: Gel-based in vitro incision assay, ERCC1-XPF; format: biochemical; settings: purified ERCC1-XPF, 5'-32P DNA substrate, 37°C; read-out: IC50 from the gel-based assay
Protocol: The gel-based in vitro incision assay has been described and extensively used. Here, we titrated Hit 1 (Figure 2A) with ERCC1-XPF or control endonuclease HhaI (Figure 2B) on ice and reactions were initiated by the addition of the 5'-[^32P] radiolabeled DNA substrate at 37°C. The products are visualized via phosphorimager analysis and the ERCC1-XPF or HhaI incised product is illustrated as a faster migrating band in the gel (Figure 2A and 2B).
Hits from the HTS fluorescence screen were validated in a gel based nuclease activity assay as previously described. This assay is robust and highly quantitative. Briefly, the 26- mer DNA substrate (Figure 1) was labeled on the 5'-terminus with [γ^32P]-ATP using T4 polynucleotide kinase (NEB) for 30 minutes at 37°C. The 5'-labeled DNA substrate was annealed to its complementary strand by heating to 95°C for 5 minutes, followed by 65°C and then 37°C for a total of 2 hours. This substrate was gel-purified on a 10% native polyacrylamide gel in TBE (Tris, borate, EDTA electrophoresis buffer), developed, cut and kept for gel elution overnight at 4°C. Post gel elution, the substrate was ethanol precipitated and the counts were determined. The final substrate was stored at −20°C. […]

SMILES | effect on binding of purified ERCC1-XPF to DNA (ERCC1-XPF [1]) | effect on binding of ERCC1-XPF to DNA at the highest concentrations (ERCC1-XPF [1]; highest concentrations) | inhibition of HhaI nuclease activity, gel-based assay (HhaI) | intrastrand adducts remaining (H460 cells) | IC50 (ERCC1-XPF [2]) [nM]
Cc1ccc(S(=O)(=O)Oc2cc(S(=O)(=O)O)cc3cc(S(=O)(=O)O)cc(N)c23)cc1 [NSC16168] | does not affect DNA binding of ERCC1-XPF | minor effect on the DNA binding | does not inhibit the nuclease activity | ~ 60% | ~500
Oc1cc(O)c2c(c1)OC(c1ccc(O)c(O)c1)C(O)C2c1c(O)cc(O)c2c1OC(c1ccc(O)c(O)c1)C(O)C2 (stereo not drawn) [NSC143099] | does not affect the binding of purified ERCC1-XPF to DNA |  | does not inhibit the nuclease activity | ~ 65% | ~25
